Assay: In vitro PGE-1 elution from coated stents overlaid with a permeable polymer membrane, measured by HPLC
Assay type: physicochemical
Method: Various materials presently used in pharmaceutical preparations as solubilizers, crystallization inhibitors, suspension stabilizers and lyophilization agents were mixed with PGE-1. The mixtures were dissolved in solvent systems composed of ethanol, chloroform, water, or mixtures thereof. Prior to coating, stents (provided by different stent manufacturers) were cleaned by sonification in absolute ethanol for thirty minutes, and dried. Each stent was weighed before and after coating. The amount of PGE-1 in the coating solution was determined by high performance liquid chromatography analysis (HPLC), and used to calculate the percent by weight of PGE-1 on the stent. To confirm this value, the coating was dissolved (from the stent) and the PGE-1 content analyzed by HPLC.
Drug coatings on the stents were assessed using scanning electron microscopy (SEM) for: (a) smoothness, (b) uniformity, and (c) lack of cracking. Stents that met these criteria, were overlaid with a thin membrane of non-erodable polymer matrix to retard the release of PGE-1 from the surface of the stents. Vapor-deposition of the polymer matrix was carried out according to the manufacturer's protocol, and the thickness of the polymer matrix membrane was measured using a Tencor device.
Using the most desirable coating combination, twenty coronary stents were coated with either 100 micrograms or 250 micrograms of PGE-1, and overlaid with the polymer matrix membrane. Five stents from each drug concentration were expanded by insertion of a balloon catheter. The stents were examined by SEM after deposition of the pharmaceutical layer 14, after applying the membrane 16, and after expansion of the stents 12.
PGE-1 elution profiles were determined for each group of stents 12. In vitro PGE-1 release curves were performed using HPLC. Drug elution profiles were measured in phosphate buffered saline (pH 7.4) using a LabQuake 360° degree rotator, at ambient temperature. At each time point, the stents were removed from the one milliliter sample (typically, after 24 hours) and transferred to the next aliquot. HPLC analysis of the eluent was performed using a Waters Alliance system equipped with a 996 photodiode array detector.
HPLC Program Conditions/Settings:
Column: 4.6 mm×150 mm Reverse Phase C18
Photo-diode array UV detector set to scan 190 to 300 nm
Solvent system: 35% Acetonitrile/65% water with 0.1% acetic acid
In Example 2 a second set of twenty stents were coated as described above, except the polymer membrane overcoat 16 was twice the thickness as the former.

- Period of initial burst of PGE-1 release (FIGS. 2A and 2B, thinner membrane, 100 or 250 μg PGE-1): 48-96 hours
- Duration of slow, sustained release of the drug (FIGS. 2A and 2B, thinner membrane, after the initial burst): approximately sixty
- PGE-1 Released (%) (Study 1, 73 days, expanded stent coated with 100 μg PGE-1, PBS pH 7.4, ambient temperature): 82%
- PGE-1 Released (%) (Study 1, 73 days, expanded stent coated with 250 μg PGE-1, PBS pH 7.4, ambient temperature): 83%
- PGE-1 Released (%) (Study 1, 73 days, unexpanded stent coated with 100 μg PGE-1, PBS pH 7.4, ambient temperature): 37%
- PGE-1 Released (%) (Study 1, 73 days, unexpanded stent coated with 250 μg PGE-1, PBS pH 7.4, ambient temperature): 46%
- PGE-1 Released (%) (Study 2 (membrane twice the thickness), 35 days, expanded stent coated with 100 μg PGE-1, PBS pH 7.4): 71%
- PGE-1 Released (%) (Study 2 (membrane twice the thickness), 35 days, expanded stent coated with 250 μg PGE-1, PBS pH 7.4): 26%
- PGE-1 Released (%) (Study 2 (membrane twice the thickness), 35 days, unexpanded stent coated with 100 μg PGE-1, PBS pH 7.4): 19%
- PGE-1 Released (%) (Study 2 (membrane twice the thickness), 35 days, unexpanded stent coated with 250 μg PGE-1, PBS pH 7.4): 26%
SMILES: CCCCC[C@H](O)/C=C/[C@H]1[C@H](O)CC(=O)[C@@H]1CCCCCCC(=O)O [PGE-1, prostaglandin E-1]
- Release profile with thicker polymer overcoat compared with thinner membrane (FIGS. 3A and 3B, membrane twice the thickness): initial release of PGE-1 is delayed and the overall amount of PGE-1 eluted from the stents 12 over time is reduced
